The text below walks through data of paper PMC8712301, “Novel CYP11B-ligand [^123/131I]IMAZA as promising theranostic tool for adrenocortical tumors: comprehensive preclinical characterization and first clinical experience” (European Journal of Nuclear Medicine and Molecular Imaging, 2021).

The nature of data set [1]: Metabolic inactivation by human liver microsomes in vitro (radio-HPLC). The data set is classed as in vitro ADME. The conditions noted are these: for half-life at 0.17 MBq/ml: human, pH 7.2, 125I-labeled compound, liver microsomes 0.2 mg/ml, NADPH, 37 °C, mean ± S.D., read-out: In vitro T1/2 in human liver microsomes; for Metabolic stability compared with [125I]IMTO: radio-HPLC. The procedure:
Metabolic degradation was determined by co-incubation of the tracers with human liver microsomes (Sigma, M0317). Experiments were conducted in triplicates. Incubation mixtures consisted of liver microsomes (0.2 mg/ml), the respective ^125I-labeled compound (0.1 MBq), MgCl2 (3.3 mM), and NADPH (1.3 mM) in a total volume of 0.6 ml K3PO4 puffer (25 mM, pH 7.2). The reaction was started with the addition of NADPH and incubated at 37 °C. At predefined time points, aliquots were removed, and the reaction was terminated by adding 160 µL ice-cold methanol. After centrifugation (5000 × g, 4 °C for 4 min), the supernatant was analyzed by radio-HPLC (see experimental details and Supplementary Fig. 1 in Supplement).

The target in data set [2] is T1, human CYP11B2 (Homo sapiens, UniProt P19099).
T1 construct: expressed in transfected cells; host or cells: murine adrenocortical cancer cell line Y1 (Y1-hsCyp11B2, stably transfected)
T1 sequence (P19099 25-503): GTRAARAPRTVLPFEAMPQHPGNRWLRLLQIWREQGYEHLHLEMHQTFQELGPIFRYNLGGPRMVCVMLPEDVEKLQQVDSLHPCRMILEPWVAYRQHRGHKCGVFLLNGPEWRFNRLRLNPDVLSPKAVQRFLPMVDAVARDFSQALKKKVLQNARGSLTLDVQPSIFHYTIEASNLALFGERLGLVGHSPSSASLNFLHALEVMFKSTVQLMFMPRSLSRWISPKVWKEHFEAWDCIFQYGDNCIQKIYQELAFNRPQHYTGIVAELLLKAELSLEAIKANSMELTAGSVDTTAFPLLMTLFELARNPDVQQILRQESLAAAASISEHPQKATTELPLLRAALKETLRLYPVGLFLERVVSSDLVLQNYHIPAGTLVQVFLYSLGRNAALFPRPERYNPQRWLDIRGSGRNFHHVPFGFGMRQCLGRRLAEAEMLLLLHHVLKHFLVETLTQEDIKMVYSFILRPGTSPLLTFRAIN
As to the kind of experiment: Inhibition of CYP11B2 in stably transfected Y1-hsCyp11B2 cells. The data set is classed as cell-based. The protocol: (§1) The human adrenocortical cell line NCI-H295 and the murine adrenocortical cancer cell line Y1 transfected with either human CYP11B1 or CYP11B2 were used for determination of IC50 values as already described.
(§2) IC50 values were calculated from all values using the program GraphPad Prism5®. All results are expressed as mean ± standard deviation.

For data set [3], the system named is NCI-H295 cells. Kind of data set: Steroid secretion in NCI-H295 cells after 48-h incubation. The conditions noted are these: for Production of the investigated hormones: higher concentrations; for Upstream steroids 17-OH-progesterone and androstenedione: lower concentrations 0.1-10 nM. The data set is classed as cell-based, human. The protocol: as §1
Fig. 2 Steroid secretion in NCI-H295 cells after 48-h incubation with IMTO, IMAZA, 3-tetrahydrofurylester, and 2,2-difluoroethylester (0.1–10,000 nM). NCI-H295 cells were incubated for 48 h with the four compounds. Each experiment was performed in triplicates. At the end of the incubation period, steroid hormones (cortisol, aldosterone, 17-OH-P, and androstenedione) were determined in the cell supernatant by commercially available assays

Data set [4] is described as follows: Lipophilicity estimated from HPLC retention times.
In data set [5] the target is T2, human CYP11B1 (Homo sapiens, UniProt P15538).
T2 construct: expressed in transfected cells; host or cells: murine adrenocortical cancer cell line Y1 (Y1-hsCyp11B1, stably transfected)
T2 sequence (P15538 25-503): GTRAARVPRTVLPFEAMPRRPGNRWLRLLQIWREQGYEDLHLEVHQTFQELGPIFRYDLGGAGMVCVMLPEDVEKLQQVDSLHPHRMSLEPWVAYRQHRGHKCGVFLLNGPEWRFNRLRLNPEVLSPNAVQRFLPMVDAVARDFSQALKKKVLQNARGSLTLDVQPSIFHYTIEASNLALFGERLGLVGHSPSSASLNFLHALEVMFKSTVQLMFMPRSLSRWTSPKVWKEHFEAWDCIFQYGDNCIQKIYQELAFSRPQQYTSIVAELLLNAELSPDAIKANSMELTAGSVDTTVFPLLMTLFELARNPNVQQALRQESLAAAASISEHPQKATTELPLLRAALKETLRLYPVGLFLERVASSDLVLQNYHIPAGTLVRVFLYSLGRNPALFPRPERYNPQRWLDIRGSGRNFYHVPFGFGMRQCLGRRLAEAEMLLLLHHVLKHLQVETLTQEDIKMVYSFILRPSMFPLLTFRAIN
As to the kind of experiment: Inhibition of CYP11B1 in stably transfected Y1-hsCyp11B1 cells. It counts as cell-based. The procedure: as §1, §2

For data set [6], the system named is metastatic ACC. Kind of data set: Dosimetry and endoradiotherapy with [131I]IMAZA in a patient with metastatic ACC. The data set is classed as in vivo, human. The conditions noted are these: patient #1, derived from diagnostics with [123I]IMTO. An excerpt:
Patient #1 had experienced disease progression with a more than fourfold increase in their dominant lesions within only 4 months after a phase of disease stabilization after standard treatment with mitotane and eight courses of combination chemotherapy with etoposide, doxorubicin, and cisplatin. They received therapeutic doses with 28.2 GBq [^131I]IMAZA 1 month and with 30.5 GBq [^131I]IMAZA 7 months after the evaluation with [^123I]IMAZA. Prior to the first treatment, the absorbed dose to the blood was measured with a tracer activity of 72 MBq [^131I]IMAZA as a surrogate for the exposure of the dose-limiting organ, the red bone marrow. The absorbed dose to the blood was estimated from assessments of the activity kinetics in total body and blood up to 48 h when the mean activity concentrations had dropped to 5% of the values at 5 min after the administration in the total body and to 1% in the blood. During therapy, the total body activity retention was measured with a survey meter in the ceiling over the patient’s bed. Gamma camera whole body scans accompanied by blood sampling were acquired starting 4 days post-administration after the first and 2 days after the second therapy until dismissal. SPECT/CT imaging was performed after 4 and 5 days, respectively.
Tumor evaluation was performed by [^18F]FDG PET/CT at baseline and 2, 5, 8, 11, 14, and 21 months after administration of the first treatment dose. Subsequently, the patient declined further follow-up imaging or additional therapeutic interventions.

For data set [7], the system named is metastatic ACC. Described as above. The conditions noted are these: patient #1, derived from diagnostics with [123I]IMTO. The data set is classed as in vivo, human. The source holds these as a separate data set.
The subject of data set [8] is advanced ACC. Kind of data set: Diagnostic imaging and biokinetics with [123I]IMTO and [123I]IMAZA in patients with advanced ACC. It counts as in vivo, human. The conditions noted are these: kinetics recalculated for 131I from 123I diagnostics in patients. The procedure: Three patients (#1, #2, and #3) were investigated by [^123I]IMAZA (administered doses, 117, 163, and 182 MBq, respectively) and subsequently by [^123I]IMTO (176, 169, and 146 MBq, respectively). The time interval between the imaging studies was at least 5 days. Scintigraphic imaging was performed using a Siemens Symbia dual-head gamma camera equipped with medium-energy parallel-hole collimators. Activity concentration was measured in whole blood samples drawn at 2 min, 5 min, 15 min, 1 h, 2.5 h, 5 h, and 23 h after the administration. Plasma activity was analyzed in patient #1.

Data set [9] has as its system advanced ACC. Also on record: method as in PMID 15898346, PMID 29452402. The conditions noted are these: advanced ACC ref 10, 11; cited from earlier work.

Like-named read-outs stand apart in the source and are kept apart here.

As for `COC(=O)c1cncn1[C@H](C)c1ccc(I)cc1` [Compound 1, (R)-1-[1-(4-Iodophenyl)ethyl]-1H-imidazole-5-carboxylic acid methyl ester], the melting point fell in the range of 72 to 74 °C. Also, the half-life at 0.17 MBq/ml in [1] (human liver microsomes) amounted to 7.3 ± 3.6 min.

As to `C[C@H](c1ccc(I)cc1)n1cncc1C(=O)O` [Compound 2, (R)-1-[1-(4-Iodophenyl)ethyl]-1H-imidazole-5-carboxylic acid], the melting point is > 250 °C (dec.). The IC50 in data set [2] came to 611 ± 1040 nM.

On to `C[C@H](c1ccc(I)cc1)n1cncc1C(=O)OC1CCOC1` (stereo partly drawn) [Compound 3, (R)-1-[1-(4-Iodophenyl)ethyl]-1H-imidazole-5-carboxylic acid 3-tetrahydrofurylester], for which the “Production of the investigated hormones” value in data set [3] is reported as “completely stopped”. For the same compound, the “Upstream steroids 17-OH-progesterone and androstenedione” value in data set [3] was “accumulation of the upstream steroids 17-OH-progesterone and androstenedione was observed”. For the same compound, in data set [4], the “Lipophilicity compared with IMTO” value is recorded as “comparable”. The IC50 turned out to be 5.3 ± 5.9 nM in data set [5] and 2.9 ± 1.6 nM in data set [2]. For the same compound, the “Metabolic stability compared with [125I]IMTO” value in [1] (human liver microsomes) is “nearly equal or even better metabolic stability”. For the same compound, the half-life at 0.17 MBq/ml in data set [1] is 7.4 ± 2.8 min.

Consider `C[C@H](c1ccc(I)cc1)n1cncc1C(=O)OCC(F)F` [Compound 4, (R)-1-[1-(4-Iodophenyl)ethyl]-1H-imidazole-5-carboxylic acid 2,2-difluoroethylester], for which, in data set [3], the “Production of the investigated hormones” value is given as “completely stopped”; the “Upstream steroids 17-OH-progesterone and androstenedione” value was “accumulation of the upstream steroids 17-OH-progesterone and androstenedione was observed”. The “Lipophilicity compared with IMTO” value in data set [4] is “comparable”. Further, the IC50 in data set [5] came out at 0.3 ± 0.4 nM. For the same compound, in [1] (human liver microsomes), the “Metabolic stability compared with [125I]IMTO” value is reported as “nearly equal or even better metabolic stability”. The half-life at 0.17 MBq/ml in [1] was 7.5 ± 0.87 min. In addition, inhibition in [2] was half-maximal at 4.5 ± 0.5 nM (IC50).

With `C[C@H](c1ccc(I)cc1)n1cncc1C(=O)N1CCC1` [Compound 5, (R)-1-[1-(4-Iodophenyl)ethyl]-1H-imidazole-5-carboxylic acid azetidinylamide], in data set [3], the “Production of the investigated hormones” value is recorded as “completely stopped”; the “Upstream steroids 17-OH-progesterone and androstenedione” value was “accumulation of the upstream steroids 17-OH-progesterone and androstenedione was observed”. Further, the “Lipophilicity compared with IMTO” value in data set [4] is reported as “lower”. Moreover, the 50% inhibitory concentration (IC50) in data set [5] (stably transfected Y1-hsCyp11B1 cells, substrate deoxycortisol (1 µM), mean of at least three experiments in duplicates, read-out: IC50 CYP11B1) is 3.2 ± 0.1 nM. For the same compound, the half-life at 0.17 MBq/ml in [1] (human liver microsomes) amounted to 26.1 ± 5.5 min. For the same compound, in data set [2] (stably transfected Y1-hsCyp11B2 cells, substrate 11-deoxycorticosterone (1 µM), mean of at least three experiments in duplicates, read-out: IC50 CYP11B2), the IC50 stood at 1.2 ± 0.1 nM.

Turning to `COC(=O)c1cncn1C(C)c1ccc([131I])cc1` (stereo not shown) [[^131I]IMTO], the Blood absorbed dose in [6] turned out to be 0.17 Gy/GBq. The “Residence time per liter of whole blood” value in [7] is 0.55 h. Moreover, the “Mean blood absorbed dose” value in [8] is recorded as 0.11 Gy/GBq.

Turning to `Clc1ccc(C(c2ccccc2Cl)C(Cl)Cl)cc1` (stereo not shown) [mitotane], the Response rate in data set [9] is given as at most 24%.
